Laboratory results from ChEMBL document CHEMBL3217615, “Novel 3,5-bis(arylidiene)-4-piperidone based monocarbonyl analogs of curcumin: anticancer activity evaluation and mode of action study” (2014).

Assays:
Format in all cases: functional
KM12 = test: Growth inhibition of human KM12 cells assessed as cell growth at 10^-6 M after 48 hrs by sulforhodamine B assay; conditions: KM12, 48 h, read-out: Activity
HL-60(TB) = test: Growth inhibition of human HL-60(TB) cells assessed as cell growth at 10^-6 M after 48 hrs by sulforhodamine B assay; conditions: HL-60, 48 h, read-out: Activity
DU-145 [1] = test: Growth inhibition of human DU145 cells after 48 hrs by sulforhodamine B assay; conditions: DU-145, 48 h; for CC50: read-out: LC50 (the source's name)
DU-145 [2] = test: Growth inhibition of human DU145 cells assessed as cell growth at 10^-7 M after 48 hrs by sulforhodamine B assay; conditions: DU-145, 48 h, read-out: Activity
M14 = test: Growth inhibition of human M14 cells after 48 hrs by sulforhodamine B assay; conditions: M14, 48 h; for CC50: read-out: LC50 (the source's name)
DU-145 [3] = test: Growth inhibition of human DU145 cells assessed as cell growth at 10^-6 M after 48 hrs by sulforhodamine B assay; conditions: DU-145, 48 h, read-out: Activity
SNB-19 = test: Growth inhibition of human SNB19 cells assessed as cell growth at 10^-8 M after 48 hrs by sulforhodamine B assay; conditions: SNB-19, 48 h; for growth at 0.01 µM: read-out: Activity; for TGI: read-out: pTGI (converted)
COLO 205 = test: Induction of apoptosis in human COLO205 cells assessed as viable cells level at 10 uM after 24 hrs by Annexin V/propidium iodide staining-based fluorescence microscopy
[4] = Growth inhibition of human BT549 cells assessed as cell growth at 10^-7 M after 48 hrs by sulforhodamine B assay; conditions: BT-549, 48 h, read-out: Activity
MDA-MB-435 = test: Growth inhibition of human MDA-MB-435 cells assessed as cell growth at 10^-7 M after 48 hrs by sulforhodamine B assay; conditions: MDA-MB-435, 48 h, read-out: Activity
[5] = Growth inhibition of human HCT15 cells after 48 hrs by sulforhodamine B assay; conditions: HCT-15, 48 h; for CC50: read-out: LC50 (the source's name)
[6] = Growth inhibition of human SF295 cells assessed as cell growth at 10^-5 M after 48 hrs by sulforhodamine B assay; conditions: SF-295, 48 h, read-out: Activity
RPMI-8226 = test: Growth inhibition of human RPMI8226 cells assessed as cell growth at 10^-7 M after 48 hrs by sulforhodamine B assay; conditions: RPMI-8226, 48 h, read-out: Activity
CCRF-CEM [7] = test: Growth inhibition of human CCRF-CEM cells assessed as cell growth at 10^-7 M after 48 hrs by sulforhodamine B assay; conditions: read-out: Activity
TK-10 [8] = test: Growth inhibition of human TK10 cells assessed as cell growth at 10^-8 M after 48 hrs by sulforhodamine B assay; conditions: TK-10, 48 h
TK-10 [9] = test: Growth inhibition of human TK10 cells assessed as cell growth at 10^-6 M after 48 hrs by sulforhodamine B assay; conditions: TK-10, 48 h, read-out: Activity
[10] = Growth inhibition of human Hs 578T cells assessed as cell growth at 10^-4 M after 48 hrs by sulforhodamine B assay; conditions: read-out: Activity
TK-10 [11] = test: Growth inhibition of human TK10 cells after 48 hrs by sulforhodamine B assay; conditions: TK-10, 48 h
[12] = Growth inhibition of human Hs 578T cells assessed as cell growth at 10^-8 M after 48 hrs by sulforhodamine B assay
PC-3 = test: Growth inhibition of human PC3 cells assessed as cell growth at 10^-6 M after 48 hrs by sulforhodamine B assay; conditions: PC-3, 48 h, read-out: Activity
HOP-62 = test: Growth inhibition of human HOP62 cells assessed as cell growth at 10^-4 M after 48 hrs by sulforhodamine B assay; conditions: HOP-62, 48 h, read-out: Activity
[13] = Growth inhibition of human Hs 578T cells assessed as cell growth at 10^-6 M after 48 hrs by sulforhodamine B assay; conditions: read-out: Activity
[14] = Growth inhibition of human Hs 578T cells assessed as cell growth at 10^-7 M after 48 hrs by sulforhodamine B assay; conditions: read-out: Activity
CCRF-CEM [15] = test: Growth inhibition of human CCRF-CEM cells assessed as cell growth at 10^-6 M after 48 hrs by sulforhodamine B assay; conditions: read-out: Activity
[16] = Growth inhibition of human Hs 578T cells after 48 hrs by sulforhodamine B assay
TK-10 [17] = test: Growth inhibition of human TK10 cells assessed as cell growth at 10^-4 M after 48 hrs by sulforhodamine B assay; conditions: TK-10, 48 h, read-out: Activity
TK-10 [18] = test: Growth inhibition of human TK10 cells assessed as cell growth at 10^-7 M after 48 hrs by sulforhodamine B assay; conditions: TK-10, 48 h, read-out: Activity
[19] = read-out: LC50 (the source's name)

O=C1/C(=C/c2ccc(Cl)cc2Cl)CN(S(=O)(=O)c2ccccc2)C/C1=C\c1ccc(Cl)cc1Cl
growth at 1 µM (KM12): -30% | growth at 1 µM (HL-60(TB)): 36% | GI50 (DU-145 [1]): 0.446 µM | TGI (DU-145 [1]): 18.8 µM | CC50 (DU-145 [1]): > 100 µM | growth at 0.1 µM (DU-145 [2]): 110% | GI50 (M14): 3.66 µM | TGI (M14): > 100 µM | CC50 (M14): > 100 µM | growth at 1 µM (DU-145 [3]): 18% | GI50 (SNB-19): 0.316 µM | LC50 (SNB-19): > 100 µM | growth at 0.01 µM (SNB-19): 92% | TGI (SNB-19): 2.88 µM | Activity (COLO 205): 29% | growth at 0.1 µM [4]: 110% | growth at 0.1 µM (MDA-MB-435): 88% | GI50 [5]: 0.247 µM | TGI [5]: 0.759 µM | CC50 [5]: > 100 µM | growth at 10 µM [6]: -3% | growth at 0.1 µM (RPMI-8226): 91% | growth at 0.1 µM (CCRF-CEM [7]): 92%

Cc1ccc(S(=O)(=O)N2C/C(=C\c3cc(F)cc(F)c3)C(=O)/C(=C/c3cc(F)cc(F)c3)C2)cc1
GI50 (TK-10 [8]): 1.02 µM | LC50 (50% lethal concentration) (TK-10 [8]): 8.51 µM | growth at 0.01 µM (TK-10 [8]; read-out: Activity): 103% | TGI (TK-10 [8]; read-out: pTGI (converted)): 2.95 µM | growth at 1 µM (TK-10 [9]): 52% | growth at 100 µM [10]: -23% | GI50 (TK-10 [11]): 1.03 µM | TGI (TK-10 [11]): 2.96 µM | CC50 (TK-10 [11]; [19]): 8.46 µM | GI50 [12]: 0.398 µM | LC50 [12]: > 100 µM | growth at 0.01 µM ([12]; read-out: Activity): 92% | TGI ([12]; read-out: pTGI (converted)): 18.6 µM | growth at 1 µM (PC-3): -9% | growth at 100 µM (HOP-62): -93% | growth at 1 µM (HL-60(TB)): 4% | GI50 (DU-145 [1]): 1.24 µM | TGI (DU-145 [1]): 3.08 µM | CC50 (DU-145 [1]): 7.62 µM | growth at 1 µM [13]: 22% | growth at 0.1 µM (DU-145 [2]): 111% | GI50 (M14): 0.359 µM | TGI (M14): 1.4 µM | CC50 (M14): 5.91 µM | growth at 1 µM (DU-145 [3]): 62% | GI50 (SNB-19): 0.219 µM | LC50 (SNB-19): 2.82 µM | growth at 0.01 µM (SNB-19): 87% | TGI (SNB-19): 0.759 µM | Activity (COLO 205): 24% | growth at 0.1 µM [4]: 111% | growth at 0.1 µM (MDA-MB-435): 92% | growth at 0.1 µM [14]: 93% | GI50 [5]: 0.25 µM | TGI [5]: 1.3 µM | CC50 [5]: 30.7 µM | growth at 1 µM (CCRF-CEM [15]): -1% | GI50 [16]: 0.399 µM | TGI [16]: 18.6 µM | CC50 [16, 19]: > 100 µM | growth at 10 µM [6]: -44% | growth at 100 µM (TK-10 [17]): -85% | growth at 0.1 µM (TK-10 [18]): 106% | growth at 0.1 µM (RPMI-8226): 17% | growth at 0.1 µM (CCRF-CEM [7]): 44%
